In brackets after ≈: the same amount, converted by molar mass. Values belong to the molecule of their own block, whether it stands above or below them.
Columns and labels:
[1] = Chemiluminescence measurements; format: physicochemical; conditions: for RC, quantum efficiency of chemiluminescence: 10^-3 mole/l coumarin solution; for RE, excitation efficiency: RC = Rex × RF
[2] = Fluorescence and absorbance measurements; format: physicochemical; conditions: for ε, molecular extinction coefficient: 365 nm; for S, fluorescence sensitivity: Table 2; for RF, quantum efficiency of fluorescence: acetone and ethylacetate 75:25, 10^-6 mole/l, 20°C, relative to quinine disulphate
[3] = Solubility in organic solvents; format: physicochemical; conditions: organic solvent or mixture; in tetrahydrofuran, acetone or methanol
[4] = Stability of a solution in tetrahydrofuran (high pressure liquid chromatography and fluorimetric detection); format: physicochemical; conditions: 2.10^-3 mole/l in tetrahydrofuran
Text: The stability of a 2.10^-3 mole/l solution of luminarine-1 in tetrahydrofuran was studied by high pressure liquid chromatography and fluorimetric detection.

[5] = 2 mg/l in 0.1 N H2SO4; Parker method; cited from earlier work
[6] = TCPO and H2O2, (C102) 1.4 × 10^-3
[7] = TCPO and H2O2, (C102) 1.4 × 10^-6
[8] = TCPO and H2O2, (C102) 1.4 × 10^-7
[9] = TCPO and H2O2, (C102) 1.4 × 10^-8
[10] = TCPO and H2O2, (C102) 1.4 × 10^-9

Structure (SMILES): CCN(CC)c1ccc2c(C)cc(=O)oc2c1 [COUMARIN-1, dimethylamino-7 methyl-4 coumarin]
RC, quantum efficiency of chemiluminescence ([1]; DNPO and H2O2): 0.18 10^2 E · mole^-1
RE, excitation efficiency ([1]; DNPO and H2O2): 0.33 10^-2
RC, quantum efficiency of chemiluminescence ([1]; TCPO and H2O2, pH 7.5): 0.37 10^2 E · mole^-1
RE, excitation efficiency ([1]; TCPO and H2O2, pH 7.5): 0.0067
ε, molecular extinction coefficient [2]: 38 000
S, fluorescence sensitivity [2]: 57 10^3
RF, quantum efficiency of fluorescence [2]: 0.55

Structure (SMILES): C=C[C@H]1CN2CC[C@H]1C[C@H]2[C@H](O)c1ccnc2ccc(OC)cc12 [quinine disulphate]
quantum efficiency of fluorescence (reference) [5]: 0.546

The next lines start with results.

RC, quantum efficiency of chemiluminescence ([1]; DNPO and H2O2): 0.26 10^2 E · mole^-1
RE, excitation efficiency ([1]; DNPO and H2O2): 0.45 10^-2
RC, quantum efficiency of chemiluminescence ([1]; TCPO and H2O2, pH 7.5): 0.37 10^2 E · mole^-1
RE, excitation efficiency ([1]; TCPO and H2O2, pH 7.5): 0.0065
Imax, maximum intensity [1, 6]: 301 A.U.
RC, chemiluminescence efficiency [1, 6]: 12.0 10^4 E · mol^-1
T1/2, time for reaching half the maximum intensity after the maximum time [1, 6]: 0.10 min
Tmax, time for reaching the maximum intensity [1, 6]: 0.2 min
Imax, maximum intensity [1, 7]: 75 A.U.
RC, chemiluminescence efficiency [1, 7]: 4.14 10^4 E · mol^-1
T1/2, time for reaching half the maximum intensity after the maximum time [1, 7]: 0.15 min
Tmax, time for reaching the maximum intensity [1, 7]: 0.2 min
Imax, maximum intensity [1, 8]: 31 A.U.
RC, chemiluminescence efficiency [1, 8]: 2.31 10^4 E · mol^-1
T1/2, time for reaching half the maximum intensity after the maximum time [1, 8]: 0.12 min
Tmax, time for reaching the maximum intensity [1, 8]: 0.2 min
Imax, maximum intensity [1, 9]: 3.2 A.U.
RC, chemiluminescence efficiency [1, 9]: 0.40 10^4 E · mol^-1
T1/2, time for reaching half the maximum intensity after the maximum time [1, 9]: 0.10 min
Tmax, time for reaching the maximum intensity [1, 9]: 0.2 min
Imax, maximum intensity [1, 10]: 0.3 A.U.
RC, chemiluminescence efficiency [1, 10]: 0.20 10^4 E · mol^-1
T1/2, time for reaching half the maximum intensity after the maximum time [1, 10]: 0.08 min
Tmax, time for reaching the maximum intensity [1, 10]: 0.2 min
Imax, maximum intensity ([1]; pH 4): 24 A.U.
RC, chemiluminescence efficiency ([1]; pH 4): 1.52 10^4 E · mol^-1
T1/2, time for reaching half the maximum intensity after the maximum time ([1]; pH 4): 5.0 min
Tmax, time for reaching the maximum intensity ([1]; pH 4): 0.8 min
chemiluminescence efficiency as a function of pH ([1]; pH 4 to 8): rises up to pH6 and then falls
maximum intensity as a function of pH ([1]; pH 4 to 8): increases significantly with the pH
Imax, maximum intensity ([1]; pH 5): 17 A.U.
RC, chemiluminescence efficiency ([1]; pH 5): 1.58 10^4 E · mol^-1
T1/2, time for reaching half the maximum intensity after the maximum time ([1]; pH 5): 6.0 min
Tmax, time for reaching the maximum intensity ([1]; pH 5): 1.0 min
Imax, maximum intensity ([1]; pH 6): 25 A.U.
RC, chemiluminescence efficiency ([1]; pH 6): 2.34 10^4 E · mol^-1
T1/2, time for reaching half the maximum intensity after the maximum time ([1]; pH 6): 5.6 min
Tmax, time for reaching the maximum intensity ([1]; pH 6): 0.8 min
Imax, maximum intensity ([1]; pH 7): 110 A.U.
RC, chemiluminescence efficiency ([1]; pH 7): 2.23 10^4 E · mol^-1
T1/2, time for reaching half the maximum intensity after the maximum time ([1]; pH 7): 1.8 min
Tmax, time for reaching the maximum intensity ([1]; pH 7): 0.4 min
Imax, maximum intensity ([1]; pH 8): 245 A.U.
RC, chemiluminescence efficiency ([1]; pH 8): 1.60 10^4 E · mol^-1
T1/2, time for reaching half the maximum intensity after the maximum time ([1]; pH 8): 0.4 min
Tmax, time for reaching the maximum intensity ([1]; pH 8): 0.2 min
Tmax and T1/2 as a function of pH ([1]; pH beyond 5): decrease when the pH increases beyond 5
ε, molecular extinction coefficient [2]: 23000 M⁻¹ cm⁻¹
S, fluorescence sensitivity [2]: 36 10^3
RF, quantum efficiency of fluorescence [2]: 0.57
Structure (SMILES): Cc1cc(=O)oc2c3c4c(cc12)CCCN4CCC3 [COUMARIN-102, tetrahydro-2,3,5,6,7,1H,5H,11H-(1)-benzopyrano (6,7,8-ij) methyl-9 quinolizinone-11]
chemiluminescence efficiency RC as a function of concentration ([1]; TCPO and H2O2): increases with the coumarin 102 concentration
comparison of fluorescence, absorbance and chemiluminescence properties ([2]; Tables 2 and 3, versus coumarin-1 and coumarin-311): has the best fluorescence, absorbance and chemiluminescence properties

RC, quantum efficiency of chemiluminescence ([1]; DNPO and H2O2): 0.13 10^2 E · mole^-1
RE, excitation efficiency ([1]; DNPO and H2O2): 0.24 10^-2
RC, quantum efficiency of chemiluminescence ([1]; TCPO and H2O2, pH 7.5): 0.17 10^2 E · mole^-1
RE, excitation efficiency ([1]; TCPO and H2O2, pH 7.5): 0.0032
ε, molecular extinction coefficient [2]: 26900 M⁻¹ cm⁻¹
S, fluorescence sensitivity [2]: 40 10^3
RF, quantum efficiency of fluorescence [2]: 0.52
Structure (SMILES): Cc1cc(=O)oc2cc(N(C)C)ccc12 [COUMARIN-311, dimethylamino-7 methyl-4 coumarin]

solubility [3]: ~1000 µg/mL (≈ 2520 µM)
Structure (SMILES): O=C(Cc1cc(=O)oc2c3c4c(cc12)CCCN4CCC3)ON1C(=O)CCC1=O [luminarine-1, tetrahydro-2,3,6,7,1H,5H, 11H(1)-benzo-pyrano(6,7,8-ij) succinimidoxycarbonylmethyl-9 quinolizinone-11]
stability of solution at ambient temperature ([4]; ambient temperature, hydrolysis to acid (VIII)): deteriorates significantly in a few hours at ambient temperature
stability of frozen solution ([4]; frozen): at least two months without any apparent deterioration
